Test results reported in the supplement of paper PMC10307832.

Tests used:
Test in all cases: relative viability (nuclei count vs DMSO), 5 days (fraction); higher = more cells survive
[1] = compound: C1CC(C2=C(C1)C3=C(N2)C=CC(=C3)Cl)C(=O)N [Selisistat] + C[C@@H](Oc1cc(-c2cnn(C3CCNCC3)c2)cnc1N)c1c(Cl)ccc(F)c1Cl [Crizotinib] (partner 1 µM)
How it was run: (§1)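 Lung cancer cell lines in 1536-well plates got either a single drug or a fixed anchor-drug dose together with five library-drug doses (not always all listed) in √10 steps, by pin tool, on the day after seeding. Nuclei were counted after 5 days, and relative viability is the treated-to-vehicle ratio of nuclei counts. Values are medians of duplicate plates.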

[2] = compound: C1CC(C2=C(C1)C3=C(N2)C=CC(=C3)Cl)C(=O)N [Selisistat] + Nc1ncn([C@H]2C[C@H](O)[C@@H](CO)O2)c(=O)n1 [Decitabine] (partner 2 µM)
How it was run: as §1

[3] = compound: c1ccc2c(CCNc3ccc(Nc4ccncc4)cc3)c[nH]c2c1 [Serdemetan] + Cc1cc(Nc2cc(N3CCN(C)CC3)nc(Sc3ccc(NC(=O)C4CC4)cc3)n2)n[nH]1 [Tozasertib] (partner 0.1 µM)
How it was run: as §1

[4] = compound: c1ccc2c(CCNc3ccc(Nc4ccncc4)cc3)c[nH]c2c1 [Serdemetan] + O=C(CCCCCCC(=O)Nc1ccccc1)NO [Vorinostat] (partner 1 µM)
How it was run: as §1

Row | Cell Line | relative viability ([1]; first compound 0.4 µM) | relative viability ([1]; first compound 1.265 µM) | relative viability ([1]; first compound 4 µM) | relative viability ([1]; first compound 12.65 µM) | relative viability ([1]; first compound 40 µM) | relative viability ([2]; first compound 0.4 µM) | relative viability ([2]; first compound 1.265 µM) | relative viability ([2]; first compound 12.65 µM) | relative viability ([2]; first compound 40 µM) | relative viability ([3]; first compound 0.04 µM) | relative viability ([3]; first compound 0.1265 µM) | relative viability ([3]; first compound 0.4 µM) | relative viability ([3]; first compound 1.265 µM) | relative viability ([3]; first compound 4 µM) | relative viability ([4]; first compound 0.04 µM) | relative viability ([4]; first compound 0.1265 µM) | relative viability ([4]; first compound 0.4 µM) | relative viability ([4]; first compound 1.265 µM) | relative viability ([4]; first compound 4 µM) | relative viability ([2]; first compound 4 µM)
1 | ABC-1 | 1.01 | 1.19 | 1.1 | 0.933 | 0.881 | 0.881 | 1.02 | 0.86 | 1.08 | 0.132 | 0.171 | 0.182 | 0.177 | 0.162 | 0.985 | 0.949 | 0.989 | 0.832 | 0.787 | –
2 | SW 900 | – | – | – | – | – | 0.446 | 0.401 | 0.517 | 0.5 | 0.494 | 0.413 | 0.441 | 0.329 | 0.359 | 0.485 | 0.569 | 0.53 | 0.393 | 0.455 | 0.42
3 | NCI-H838 | 0.819 | 0.841 | 0.888 | 0.759 | 0.801 | 0.557 | 0.459 | 0.45 | 0.454 | 0.282 | 0.246 | 0.234 | 0.231 | 0.232 | 0.729 | 0.69 | 0.684 | 0.728 | 0.696 | 0.475
4 | NCI-H1648 | – | – | – | – | – | 0.477 | 0.45 | 0.406 | 0.551 | – | 0.46 | 0.38 | 0.206 | 0.299 | – | 0.552 | 0.329 | 0.398 | 0.252 | –
5 | A549 | 0.716 | 0.742 | 0.698 | 0.709 | 0.728 | 0.257 | 0.209 | – | 0.393 | – | – | – | – | – | – | – | – | – | – | 0.232
6 | A-427 | 0.874 | 0.819 | 0.841 | 0.917 | 0.921 | 0.578 | 0.575 | 0.655 | 0.637 | 0.2 | 0.198 | 0.192 | 0.165 | 0.16 | 0.854 | 0.849 | 0.867 | 0.779 | 0.709 | –
7 | NCI-H1792 | 1.01 | 1.02 | – | 0.907 | 0.965 | 0.625 | 0.497 | 0.516 | 0.537 | – | – | – | – | – | – | – | – | – | – | –
8 | LCLC-97TM1 | 0.327 | 0.308 | 0.637 | 0.393 | 0.498 | 0.24 | 0.219 | 0.245 | 0.29 | 0.256 | 0.202 | 0.235 | – | 0.169 | 0.803 | 0.713 | 0.667 | 0.433 | 0.398 | –
9 | NCI-H1703 | 0.578 | 0.556 | 0.626 | 0.559 | 0.904 | – | – | – | – | – | – | – | – | – | – | – | – | – | – | –
10 | LCLC-103H | 1.08 | 0.991 | 0.996 | 0.999 | 1.07 | 0.782 | 0.77 | 0.729 | 0.75 | 0.611 | 0.605 | 0.502 | 0.448 | 0.402 | 0.759 | 0.852 | 0.773 | 0.75 | 0.779 | 0.7
11 | PC-3 [JPC-3] | 1.02 | 1.01 | 0.936 | 1.01 | 1.07 | 0.834 | 0.837 | 0.818 | 0.794 | 0.841 | 0.795 | 0.784 | 0.929 | 0.87 | 0.877 | 0.807 | 0.671 | 0.626 | 0.835 | –
